Activity calls are given as the source filed them. Cut-off read from the data, not from the text of the source, for most assays here: actives have a measured Kd and inactives only a lower limit.
What was measured:
[1] = molecular target: T1, Bone morphogenetic protein receptor type-2 (Homo sapiens, UniProt Q13873)
T1 sequence (Q13873 whole entry): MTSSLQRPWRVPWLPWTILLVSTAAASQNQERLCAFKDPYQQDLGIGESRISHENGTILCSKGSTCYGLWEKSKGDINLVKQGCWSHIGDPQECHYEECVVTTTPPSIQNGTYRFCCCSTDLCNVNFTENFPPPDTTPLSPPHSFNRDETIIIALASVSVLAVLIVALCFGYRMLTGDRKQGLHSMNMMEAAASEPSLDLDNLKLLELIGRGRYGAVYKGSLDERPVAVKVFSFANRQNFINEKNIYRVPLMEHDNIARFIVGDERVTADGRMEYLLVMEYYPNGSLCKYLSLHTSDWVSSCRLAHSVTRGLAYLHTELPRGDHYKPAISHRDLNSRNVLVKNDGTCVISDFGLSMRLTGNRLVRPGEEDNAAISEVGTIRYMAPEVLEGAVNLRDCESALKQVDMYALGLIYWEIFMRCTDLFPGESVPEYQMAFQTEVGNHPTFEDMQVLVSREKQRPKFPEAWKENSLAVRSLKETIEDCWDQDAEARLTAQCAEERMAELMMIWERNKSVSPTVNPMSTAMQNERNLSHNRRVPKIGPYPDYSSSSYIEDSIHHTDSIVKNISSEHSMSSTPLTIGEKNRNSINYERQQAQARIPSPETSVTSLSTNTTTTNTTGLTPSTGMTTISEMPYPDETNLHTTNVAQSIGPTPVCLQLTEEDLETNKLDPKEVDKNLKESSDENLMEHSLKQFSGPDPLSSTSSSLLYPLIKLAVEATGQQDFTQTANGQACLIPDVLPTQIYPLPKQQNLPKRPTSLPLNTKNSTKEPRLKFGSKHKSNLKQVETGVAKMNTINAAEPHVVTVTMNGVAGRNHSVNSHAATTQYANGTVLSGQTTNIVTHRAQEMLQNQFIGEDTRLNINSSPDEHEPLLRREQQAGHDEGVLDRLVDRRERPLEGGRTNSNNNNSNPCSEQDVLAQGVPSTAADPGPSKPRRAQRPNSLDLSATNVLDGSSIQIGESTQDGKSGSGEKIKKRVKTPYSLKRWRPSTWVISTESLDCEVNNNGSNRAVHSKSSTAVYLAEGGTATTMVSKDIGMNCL

[2] = molecular target: Serine/threonine-protein kinase MRCK beta (Homo sapiens, UniProt Q9Y5S2)
[3] = molecular target: T2, Ferrochelatase, mitochondrial (Homo sapiens, UniProt P22830)
T2 sequence (P22830 whole entry): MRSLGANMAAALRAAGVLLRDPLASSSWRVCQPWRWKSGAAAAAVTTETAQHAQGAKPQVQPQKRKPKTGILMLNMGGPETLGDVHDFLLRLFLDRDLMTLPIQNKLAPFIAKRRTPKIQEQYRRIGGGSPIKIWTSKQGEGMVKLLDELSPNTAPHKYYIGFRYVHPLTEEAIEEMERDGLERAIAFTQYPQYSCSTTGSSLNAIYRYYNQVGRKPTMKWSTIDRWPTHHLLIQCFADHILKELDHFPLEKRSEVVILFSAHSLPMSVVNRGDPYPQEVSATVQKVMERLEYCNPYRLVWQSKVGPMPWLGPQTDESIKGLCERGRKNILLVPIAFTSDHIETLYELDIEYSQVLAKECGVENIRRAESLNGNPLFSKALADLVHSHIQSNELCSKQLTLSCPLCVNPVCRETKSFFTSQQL

[4] = molecular target: 5'-AMP-activated protein kinase catalytic subunit alpha-1 (Homo sapiens, UniProt Q13131)
[5] = molecular target: T3, Phosphatidylinositol 5-phosphate 4-kinase type-2 gamma (Homo sapiens, UniProt Q8TBX8)
T3 sequence (Q8TBX8 whole entry): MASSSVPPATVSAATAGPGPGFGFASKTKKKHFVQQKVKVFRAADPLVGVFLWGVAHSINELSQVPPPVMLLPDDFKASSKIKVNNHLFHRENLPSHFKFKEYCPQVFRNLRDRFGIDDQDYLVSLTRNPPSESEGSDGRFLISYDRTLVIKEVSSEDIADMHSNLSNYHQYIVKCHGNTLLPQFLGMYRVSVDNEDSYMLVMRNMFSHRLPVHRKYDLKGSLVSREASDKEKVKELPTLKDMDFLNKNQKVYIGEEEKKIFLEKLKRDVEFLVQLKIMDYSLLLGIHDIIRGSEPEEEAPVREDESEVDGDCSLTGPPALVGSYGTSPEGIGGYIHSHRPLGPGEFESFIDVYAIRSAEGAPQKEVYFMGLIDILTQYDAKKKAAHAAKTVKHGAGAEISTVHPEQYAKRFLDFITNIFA

[6] = molecular target: Mitogen-activated protein kinase kinase kinase 1 (Homo sapiens, UniProt Q13233)
[7] = molecular target: Serine/threonine-protein kinase 10 (Homo sapiens, UniProt O94804)
[8] = molecular target: Mitogen-activated protein kinase 3 (Homo sapiens, UniProt P27361)
[9] = molecular target: Tyrosine-protein kinase BTK (Homo sapiens, UniProt Q06187)
[10] = molecular target: T4, Serine/threonine-protein kinase ICK (Homo sapiens, UniProt Q9UPZ9)
T4 sequence (Q9UPZ9 whole entry): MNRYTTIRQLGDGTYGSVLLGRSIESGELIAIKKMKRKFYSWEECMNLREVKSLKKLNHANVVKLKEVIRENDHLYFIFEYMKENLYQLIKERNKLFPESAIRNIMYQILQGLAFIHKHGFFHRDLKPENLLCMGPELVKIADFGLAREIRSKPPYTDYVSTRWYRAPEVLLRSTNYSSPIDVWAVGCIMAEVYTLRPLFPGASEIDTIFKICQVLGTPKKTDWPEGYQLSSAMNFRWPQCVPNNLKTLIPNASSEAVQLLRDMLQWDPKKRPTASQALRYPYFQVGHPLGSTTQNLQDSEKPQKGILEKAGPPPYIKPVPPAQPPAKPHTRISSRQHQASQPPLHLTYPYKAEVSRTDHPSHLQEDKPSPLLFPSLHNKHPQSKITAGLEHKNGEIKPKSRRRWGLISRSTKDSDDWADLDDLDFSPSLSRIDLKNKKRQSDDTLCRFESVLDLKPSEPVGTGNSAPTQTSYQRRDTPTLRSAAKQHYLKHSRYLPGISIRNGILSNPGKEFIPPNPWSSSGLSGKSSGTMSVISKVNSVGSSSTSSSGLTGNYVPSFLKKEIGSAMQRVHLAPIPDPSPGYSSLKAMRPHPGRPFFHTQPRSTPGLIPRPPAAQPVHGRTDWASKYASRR
Note: in the data inactive means no Kd found up to 30 µM.

Chain of Serine/threonine-protein kinase MRCK beta (Q9Y5S2 whole entry): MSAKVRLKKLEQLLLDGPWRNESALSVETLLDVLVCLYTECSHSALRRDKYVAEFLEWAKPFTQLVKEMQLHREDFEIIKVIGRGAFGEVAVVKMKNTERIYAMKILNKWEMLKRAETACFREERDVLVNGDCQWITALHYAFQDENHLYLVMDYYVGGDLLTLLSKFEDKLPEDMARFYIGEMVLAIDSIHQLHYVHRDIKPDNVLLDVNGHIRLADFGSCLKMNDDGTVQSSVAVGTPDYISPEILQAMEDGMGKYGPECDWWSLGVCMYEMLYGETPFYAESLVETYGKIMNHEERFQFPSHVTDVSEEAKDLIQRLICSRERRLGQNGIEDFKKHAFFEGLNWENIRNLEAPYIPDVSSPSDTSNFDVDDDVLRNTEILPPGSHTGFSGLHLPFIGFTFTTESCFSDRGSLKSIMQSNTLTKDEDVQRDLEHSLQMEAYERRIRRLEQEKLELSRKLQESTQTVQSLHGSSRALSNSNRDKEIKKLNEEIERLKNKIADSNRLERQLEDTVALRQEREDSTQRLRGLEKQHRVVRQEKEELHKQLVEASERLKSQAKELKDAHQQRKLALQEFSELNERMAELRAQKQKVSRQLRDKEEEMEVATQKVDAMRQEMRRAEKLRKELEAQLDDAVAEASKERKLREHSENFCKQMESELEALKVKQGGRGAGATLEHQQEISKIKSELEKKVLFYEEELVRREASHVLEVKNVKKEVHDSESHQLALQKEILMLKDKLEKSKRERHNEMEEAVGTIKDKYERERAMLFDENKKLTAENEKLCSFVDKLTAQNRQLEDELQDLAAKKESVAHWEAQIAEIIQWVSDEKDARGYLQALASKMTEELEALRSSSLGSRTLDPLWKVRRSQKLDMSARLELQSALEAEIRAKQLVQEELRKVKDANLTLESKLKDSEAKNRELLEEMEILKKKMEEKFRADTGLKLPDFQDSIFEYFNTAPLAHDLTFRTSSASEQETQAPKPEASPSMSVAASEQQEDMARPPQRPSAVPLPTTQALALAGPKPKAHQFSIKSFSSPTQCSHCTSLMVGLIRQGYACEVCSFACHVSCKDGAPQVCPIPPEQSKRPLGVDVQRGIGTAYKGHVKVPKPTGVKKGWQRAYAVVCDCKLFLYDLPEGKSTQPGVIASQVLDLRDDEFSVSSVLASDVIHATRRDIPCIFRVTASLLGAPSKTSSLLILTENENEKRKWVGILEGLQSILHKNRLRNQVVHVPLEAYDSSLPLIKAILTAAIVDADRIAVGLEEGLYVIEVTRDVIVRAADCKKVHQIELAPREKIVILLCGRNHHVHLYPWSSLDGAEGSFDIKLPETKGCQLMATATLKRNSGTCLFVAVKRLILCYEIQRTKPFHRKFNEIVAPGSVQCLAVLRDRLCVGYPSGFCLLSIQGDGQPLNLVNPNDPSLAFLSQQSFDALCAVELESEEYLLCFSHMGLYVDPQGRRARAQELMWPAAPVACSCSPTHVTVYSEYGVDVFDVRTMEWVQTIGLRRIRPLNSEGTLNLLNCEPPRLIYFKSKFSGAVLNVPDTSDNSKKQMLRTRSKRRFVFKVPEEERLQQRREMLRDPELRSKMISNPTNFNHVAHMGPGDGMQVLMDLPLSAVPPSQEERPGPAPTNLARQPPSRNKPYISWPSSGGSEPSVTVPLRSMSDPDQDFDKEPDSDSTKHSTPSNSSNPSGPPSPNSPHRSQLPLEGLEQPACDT
Chain of Tyrosine-protein kinase BTK (Q06187 whole entry): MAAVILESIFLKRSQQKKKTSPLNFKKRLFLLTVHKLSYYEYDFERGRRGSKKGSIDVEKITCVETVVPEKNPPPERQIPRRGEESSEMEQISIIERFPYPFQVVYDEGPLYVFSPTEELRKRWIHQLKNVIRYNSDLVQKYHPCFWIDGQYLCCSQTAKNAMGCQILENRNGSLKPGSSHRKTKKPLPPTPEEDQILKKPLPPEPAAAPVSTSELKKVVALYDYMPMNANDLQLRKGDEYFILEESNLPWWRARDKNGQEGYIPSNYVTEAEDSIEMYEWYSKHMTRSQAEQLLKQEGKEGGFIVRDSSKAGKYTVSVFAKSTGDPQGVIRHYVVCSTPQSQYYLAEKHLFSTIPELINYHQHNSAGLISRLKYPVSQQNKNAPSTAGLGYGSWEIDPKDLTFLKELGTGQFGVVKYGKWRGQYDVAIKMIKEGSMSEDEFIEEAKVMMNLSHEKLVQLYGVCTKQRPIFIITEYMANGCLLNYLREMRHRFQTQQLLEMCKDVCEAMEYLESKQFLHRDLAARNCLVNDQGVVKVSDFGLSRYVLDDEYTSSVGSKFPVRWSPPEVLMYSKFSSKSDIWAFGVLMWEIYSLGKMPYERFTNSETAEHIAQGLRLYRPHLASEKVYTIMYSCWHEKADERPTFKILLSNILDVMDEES
Chain of Mitogen-activated protein kinase kinase kinase 1 (Q13233 whole entry): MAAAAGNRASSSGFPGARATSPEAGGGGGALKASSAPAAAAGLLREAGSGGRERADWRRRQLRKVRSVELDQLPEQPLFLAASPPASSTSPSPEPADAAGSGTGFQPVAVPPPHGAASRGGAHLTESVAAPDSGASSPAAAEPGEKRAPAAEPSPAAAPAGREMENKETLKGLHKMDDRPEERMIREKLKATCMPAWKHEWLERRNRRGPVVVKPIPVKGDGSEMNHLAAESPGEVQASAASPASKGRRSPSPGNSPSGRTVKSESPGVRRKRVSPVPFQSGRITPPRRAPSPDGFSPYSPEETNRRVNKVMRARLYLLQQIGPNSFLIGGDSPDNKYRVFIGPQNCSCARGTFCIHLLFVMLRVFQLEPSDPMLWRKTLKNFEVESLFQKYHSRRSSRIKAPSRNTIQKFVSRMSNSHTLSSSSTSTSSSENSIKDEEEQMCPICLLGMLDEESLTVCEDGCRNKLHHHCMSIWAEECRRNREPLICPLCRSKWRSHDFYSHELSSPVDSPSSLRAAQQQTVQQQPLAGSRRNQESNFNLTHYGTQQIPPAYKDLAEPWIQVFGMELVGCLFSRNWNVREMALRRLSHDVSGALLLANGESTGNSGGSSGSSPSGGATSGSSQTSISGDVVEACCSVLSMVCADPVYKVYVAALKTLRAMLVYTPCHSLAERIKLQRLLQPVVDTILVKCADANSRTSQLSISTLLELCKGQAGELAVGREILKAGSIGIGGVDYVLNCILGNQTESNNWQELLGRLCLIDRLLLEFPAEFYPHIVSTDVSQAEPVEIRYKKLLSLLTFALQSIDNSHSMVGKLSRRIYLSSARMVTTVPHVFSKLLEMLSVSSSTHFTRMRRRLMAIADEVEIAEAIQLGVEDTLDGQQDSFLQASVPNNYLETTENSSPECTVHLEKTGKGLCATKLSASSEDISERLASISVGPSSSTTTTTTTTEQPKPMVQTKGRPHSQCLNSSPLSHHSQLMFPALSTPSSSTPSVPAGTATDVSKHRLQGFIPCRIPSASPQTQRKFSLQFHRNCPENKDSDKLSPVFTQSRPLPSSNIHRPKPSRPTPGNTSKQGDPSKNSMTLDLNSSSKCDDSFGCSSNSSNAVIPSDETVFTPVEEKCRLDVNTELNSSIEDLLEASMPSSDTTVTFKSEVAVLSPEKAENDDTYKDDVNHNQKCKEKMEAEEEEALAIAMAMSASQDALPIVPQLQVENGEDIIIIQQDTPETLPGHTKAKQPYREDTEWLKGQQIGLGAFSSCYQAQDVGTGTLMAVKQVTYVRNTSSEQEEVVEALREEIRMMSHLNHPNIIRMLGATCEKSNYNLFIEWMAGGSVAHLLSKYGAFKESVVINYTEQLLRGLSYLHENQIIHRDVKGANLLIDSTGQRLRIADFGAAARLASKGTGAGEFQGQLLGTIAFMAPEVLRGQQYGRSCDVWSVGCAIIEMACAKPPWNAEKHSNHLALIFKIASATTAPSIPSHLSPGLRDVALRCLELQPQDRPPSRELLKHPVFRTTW
Chain of Serine/threonine-protein kinase 10 (O94804 whole entry): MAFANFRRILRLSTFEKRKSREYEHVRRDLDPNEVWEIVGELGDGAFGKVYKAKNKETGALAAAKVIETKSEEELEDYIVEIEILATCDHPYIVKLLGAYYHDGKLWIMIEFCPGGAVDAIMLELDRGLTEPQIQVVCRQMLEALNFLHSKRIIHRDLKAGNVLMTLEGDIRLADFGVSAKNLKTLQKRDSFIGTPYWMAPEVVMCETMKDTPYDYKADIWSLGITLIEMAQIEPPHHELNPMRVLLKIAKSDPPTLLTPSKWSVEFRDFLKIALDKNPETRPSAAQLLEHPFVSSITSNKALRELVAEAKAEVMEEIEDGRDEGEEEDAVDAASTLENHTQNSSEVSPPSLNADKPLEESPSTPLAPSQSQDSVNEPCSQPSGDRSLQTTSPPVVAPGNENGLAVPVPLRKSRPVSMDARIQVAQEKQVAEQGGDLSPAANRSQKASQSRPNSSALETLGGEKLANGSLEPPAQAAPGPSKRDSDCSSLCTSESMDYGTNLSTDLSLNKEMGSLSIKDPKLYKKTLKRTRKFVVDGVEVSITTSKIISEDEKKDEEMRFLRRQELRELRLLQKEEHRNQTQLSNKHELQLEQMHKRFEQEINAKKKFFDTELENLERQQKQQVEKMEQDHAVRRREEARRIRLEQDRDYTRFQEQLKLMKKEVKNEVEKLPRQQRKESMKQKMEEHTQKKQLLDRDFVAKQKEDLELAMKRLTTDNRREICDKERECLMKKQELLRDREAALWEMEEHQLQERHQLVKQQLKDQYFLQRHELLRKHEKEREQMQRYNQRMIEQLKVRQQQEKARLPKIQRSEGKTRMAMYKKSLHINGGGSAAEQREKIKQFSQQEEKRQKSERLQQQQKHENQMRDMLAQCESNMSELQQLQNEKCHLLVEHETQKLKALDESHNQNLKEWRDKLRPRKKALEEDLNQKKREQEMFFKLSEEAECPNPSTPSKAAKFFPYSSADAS

Structure (SMILES) | Kd [1] | Kd [2] | Kd [3] | Kd [4] | Kd [5] | Kd [6] | Kd [7] | Kd [8] | Kd [9] | Kd [10]
O=C(O)c1ccc2c(c1)nc(Nc1cccc(Cl)c1)c1ccncc12 [SILMITASERTIB] | 1.06 µM (active) | > 30 µM (inactive) | > 30 µM (inactive) | 15.4 µM (active) | 1.11 µM (active) | > 30 µM (inactive) | 0.096 µM (active) | > 30 µM (inactive) | > 30 µM (inactive) | 0.884 µM (active)
C=CCN(/C=C1/C(=O)O[C@H](COC)[C@@]2(C)C1=C(O)C(=O)C1=C2[C@H](OC(C)=O)C[C@]2(C)C(=O)CC[C@@H]12)CC=C [SONOLISIB] | > 30 µM (inactive) | > 30 µM (inactive) | > 30 µM (inactive) | > 30 µM (inactive) | > 30 µM (inactive) | > 30 µM (inactive) | > 30 µM (inactive) | > 30 µM (inactive) | > 30 µM (inactive) | > 30 µM (inactive)
CN1CCN(c2nc(C3=C(c4c[nH]c5ccccc45)C(=O)NC3=O)c3ccccc3n2)CC1 [SOTRASTAURIN] | > 30 µM (inactive) | > 30 µM (inactive) | > 30 µM (inactive) | > 30 µM (inactive) | > 30 µM (inactive) | > 30 µM (inactive) | > 30 µM (inactive) | > 30 µM (inactive) | > 30 µM (inactive) | 6.69 µM
CC(C)(O)CC(=O)NCCn1ccc2ncnc(Nc3ccc(Oc4cccc(C(F)(F)F)c4)c(Cl)c3)c21 [TAK-285] | > 30 µM (inactive) | > 30 µM (inactive) | > 30 µM (inactive) | > 30 µM (inactive) | > 30 µM (inactive) | > 30 µM (inactive) | > 30 µM (inactive) | > 30 µM (inactive) | > 30 µM (inactive) | > 30 µM (inactive)
Cc1cc(C(=O)Nc2cc(Oc3ccc4nc(NC(=O)C5CC5)cn4n3)ccc2C)n(C)n1 [TAK-593] | > 30 µM (inactive) | > 30 µM (inactive) | > 30 µM (inactive) | > 30 µM (inactive) | > 30 µM (inactive) | > 30 µM (inactive) | > 30 µM (inactive) | > 30 µM (inactive) | > 30 µM (inactive) | > 30 µM (inactive)
Cn1c(=O)c(F)c(Nc2ccc(I)cc2F)c2c(=O)n(C[C@@H](O)CO)cnc21 [TAK-733] | > 30 µM (inactive) | > 30 µM (inactive) | > 30 µM (inactive) | > 30 µM (inactive) | > 30 µM (inactive) | > 30 µM (inactive) | > 30 µM (inactive) | > 30 µM (inactive) | > 30 µM (inactive) | > 30 µM (inactive)
O[C@H]1CC[C@H](Nc2ncc3nc(Nc4c(F)cc(F)cc4F)n([C@H]4CCOC4)c3n2)CC1 [TANZISERTIB] | > 30 µM (inactive) | > 30 µM (inactive) | > 30 µM (inactive) | > 30 µM (inactive) | > 30 µM (inactive) | > 30 µM (inactive) | > 30 µM (inactive) | 3.69 µM (active) | > 30 µM (inactive) | > 30 µM (inactive)
CNC(=O)c1cc(COc2nnc(Nc3ccc(Cl)cc3)c3ccoc23)ccn1 [TELATINIB] | > 30 µM (inactive) | > 30 µM (inactive) | > 30 µM (inactive) | > 30 µM (inactive) | > 30 µM (inactive) | > 30 µM (inactive) | > 30 µM (inactive) | > 30 µM (inactive) | > 30 µM (inactive) | > 30 µM (inactive)
Cc1cc(-c2cc(OC(=O)c3ccccc3)ccc2Cl)cc2nnc(Nc3ccc(OCCN4CCCC4)cc3)nc12 [TG100-801] | > 30 µM (inactive) | > 30 µM (inactive) | > 30 µM (inactive) | > 30 µM (inactive) | > 30 µM (inactive) | > 30 µM (inactive) | > 30 µM (inactive) | > 30 µM (inactive) | > 30 µM (inactive) | > 30 µM (inactive)
C[C@@H]1COC(Nc2ccc3ncnc(Nc4ccc(OCc5nccs5)c(Cl)c4)c3c2)=N1 [VARLITINIB] | > 30 µM (inactive) | > 30 µM (inactive) | 76.4 µM | > 30 µM (inactive) | > 30 µM (inactive) | > 30 µM (inactive) | > 30 µM (inactive) | > 30 µM (inactive) | > 30 µM (inactive) | > 30 µM (inactive)
CNC(=O)c1cccc(-c2ccc3c(N4CCOC[C@@H]4C)nc(N4CCOC[C@@H]4C)nc3n2)c1 [VISTUSERTIB] | > 30 µM (inactive) | > 30 µM (inactive) | > 30 µM (inactive) | > 30 µM (inactive) | > 30 µM (inactive) | > 30 µM (inactive) | > 30 µM (inactive) | > 30 µM (inactive) | > 30 µM (inactive) | > 30 µM (inactive)
NC(=O)c1ccc(N(C(N)=O)c2c(F)cccc2F)nc1-c1ccc(F)cc1F [VX-702] | > 30 µM (inactive) | > 30 µM (inactive) | > 30 µM (inactive) | > 30 µM (inactive) | > 30 µM (inactive) | > 30 µM (inactive) | > 30 µM (inactive) | > 30 µM (inactive) | > 30 µM (inactive) | > 30 µM (inactive)
COc1cc2ncnc(Nc3ccc(O)cc3)c2cc1OC [WHI-P131] | > 30 µM (inactive) | > 30 µM (inactive) | > 30 µM (inactive) | > 30 µM (inactive) | > 30 µM (inactive) | > 30 µM (inactive) | 2.63 µM (active) | > 30 µM (inactive) | > 30 µM (inactive) | > 30 µM (inactive)
